Reference: publication PMC7673538 (PLoS Biology, 2020)
Values joined by “and” are separate entries in the source; they are usually repeats but may differ in a detail not shown here. Identical values can stand only once. Like-named read-outs stand apart in the source and are kept apart here.

What was measured:
CV-A24 (strain Joseph) = format: cell-based, coxsackievirus A24
in vitro [1] = conditions: human
CV-A24v = experiment: microbe, parasite or virus in culture; format: cell-based, coxsackievirus A24v
in vitro [2] = conditions: monkey
EV-A71 = experiment: microbe, parasite or virus in culture; format: cell-based, enterovirus A71; conditions: for EC50: Enterovirus A
PV-1 = experiment: microbe, parasite or virus in culture; format: cell-based, poliovirus 1; conditions: Enterovirus C
HRV-B14 = format: cell-based, human rhinovirus
EV-D68 (strain Fermon) = format: cell-based, enterovirus D68
[3] = system: representative EVs and RVs; format: cell-based
human SERT = target: T1, human SERT (Homo sapiens, UniProt P31645); format: cell-based
T1 construct: expressed in transfected cells; host or cells: HEK293 (gift of Dr. Hoener, F. Hoffmann-La Roche)

CV-B3 [4] = experiment: microbe, parasite or virus in culture; format: cell-based, coxsackievirus B3; conditions: for EC50: Enterovirus B
human DAT = target: T2, human DAT (Homo sapiens, UniProt Q01959); format: cell-based; conditions: for DAT, Mean (Figure 8B): Control = 100; for DAT, Mean as % (Figure 8B): Control = 100%
T2 construct: expressed in transfected cells; host or cells: HEK293 (gift of Dr. Hoener, F. Hoffmann-La Roche)

CV-B3 [5] = experiment: microbe, parasite or virus in culture; format: cell-based, coxsackievirus B3; conditions: Enterovirus B, CVB3, BGM
in vitro [6] = conditions: human; remark: listed apart in the source
EV-A71 (strain BrCr) = format: cell-based, enterovirus A71
CV-B3 (strain Nancy) = format: cell-based, coxsackievirus B3
human NET = target: T3, human NET (Homo sapiens, UniProt P23975); format: cell-based; conditions: for NET, Mean (Figure 8B): Control = 100; for NET, Mean as % (Figure 8B): Control = 100%
T3 construct: expressed in transfected cells; host or cells: HEK293 (gift of Dr. Hoener, F. Hoffmann-La Roche)

HRV-A2 [7] = experiment: microbe, parasite or virus in culture; format: cell-based, human rhinovirus; conditions: Human rhinovirus sp., HRVA2, HeLa R19, read-out: EC50 HRV-A2
HRV-A2 [8] = format: cell-based, human rhinovirus

T1 sequence (P31645 whole entry): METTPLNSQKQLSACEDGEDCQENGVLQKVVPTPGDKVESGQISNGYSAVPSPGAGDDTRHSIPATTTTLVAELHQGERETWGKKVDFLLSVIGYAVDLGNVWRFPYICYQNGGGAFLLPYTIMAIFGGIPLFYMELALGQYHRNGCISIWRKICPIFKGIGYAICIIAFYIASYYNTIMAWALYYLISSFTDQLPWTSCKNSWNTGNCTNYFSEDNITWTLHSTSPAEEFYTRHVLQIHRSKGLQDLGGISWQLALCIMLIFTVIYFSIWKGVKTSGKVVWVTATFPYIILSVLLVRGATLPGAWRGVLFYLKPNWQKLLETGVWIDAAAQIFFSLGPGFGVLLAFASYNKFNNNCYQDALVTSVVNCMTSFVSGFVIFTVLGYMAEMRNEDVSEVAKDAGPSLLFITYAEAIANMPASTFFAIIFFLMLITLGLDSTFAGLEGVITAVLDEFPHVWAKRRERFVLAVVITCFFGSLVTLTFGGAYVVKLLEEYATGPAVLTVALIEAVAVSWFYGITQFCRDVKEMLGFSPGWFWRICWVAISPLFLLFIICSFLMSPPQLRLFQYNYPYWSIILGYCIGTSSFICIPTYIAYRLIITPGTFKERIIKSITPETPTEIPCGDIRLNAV
T3 sequence (P23975 whole entry): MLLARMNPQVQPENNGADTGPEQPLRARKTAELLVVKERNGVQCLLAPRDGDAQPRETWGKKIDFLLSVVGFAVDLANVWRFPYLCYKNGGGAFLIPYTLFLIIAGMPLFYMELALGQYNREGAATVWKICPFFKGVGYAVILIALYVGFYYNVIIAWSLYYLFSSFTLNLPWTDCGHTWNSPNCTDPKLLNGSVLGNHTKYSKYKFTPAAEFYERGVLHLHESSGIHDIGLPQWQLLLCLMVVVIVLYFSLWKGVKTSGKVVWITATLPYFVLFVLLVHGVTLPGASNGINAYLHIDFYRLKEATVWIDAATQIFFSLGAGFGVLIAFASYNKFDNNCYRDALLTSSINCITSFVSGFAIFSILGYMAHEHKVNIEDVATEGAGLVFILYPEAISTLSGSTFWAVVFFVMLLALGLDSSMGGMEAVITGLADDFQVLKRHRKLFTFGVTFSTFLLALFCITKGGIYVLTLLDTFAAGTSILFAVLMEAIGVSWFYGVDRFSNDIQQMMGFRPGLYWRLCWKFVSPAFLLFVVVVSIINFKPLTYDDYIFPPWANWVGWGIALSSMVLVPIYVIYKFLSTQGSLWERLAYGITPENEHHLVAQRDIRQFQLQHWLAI
T2 sequence (Q01959 whole entry): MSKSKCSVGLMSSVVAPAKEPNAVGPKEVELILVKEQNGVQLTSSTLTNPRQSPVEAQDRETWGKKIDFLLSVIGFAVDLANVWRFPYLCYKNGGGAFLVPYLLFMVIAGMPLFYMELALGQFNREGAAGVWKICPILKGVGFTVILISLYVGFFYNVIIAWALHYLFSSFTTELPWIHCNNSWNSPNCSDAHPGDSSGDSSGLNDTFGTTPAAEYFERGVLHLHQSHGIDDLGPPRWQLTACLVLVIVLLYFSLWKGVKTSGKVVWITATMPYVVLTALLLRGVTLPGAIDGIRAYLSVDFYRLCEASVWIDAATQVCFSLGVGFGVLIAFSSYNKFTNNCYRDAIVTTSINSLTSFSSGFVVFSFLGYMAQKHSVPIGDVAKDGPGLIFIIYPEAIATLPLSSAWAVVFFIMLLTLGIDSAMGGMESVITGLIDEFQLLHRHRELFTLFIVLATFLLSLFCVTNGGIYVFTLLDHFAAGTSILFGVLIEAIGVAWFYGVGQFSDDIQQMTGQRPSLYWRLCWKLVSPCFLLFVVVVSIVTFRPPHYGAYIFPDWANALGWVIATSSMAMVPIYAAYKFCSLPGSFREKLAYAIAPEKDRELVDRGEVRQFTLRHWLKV

## O=C(c1ccco1)N(Cc1ccc(C(F)(F)F)cc1)c1ccccc1 [Compound 19d, N-phenyl-N-(4-(trifluoromethyl)benzyl)furan-2-carboxamide]
CV-A24 (strain Joseph); compound concentration 10 µM
  virus titer, TCID50/ml (Figure 2A): 316.228 TCID50/ml
CV-A24 (strain Joseph); compound concentration 30 µM
  virus titer, TCID50/ml (Figure 2A): 316.228 TCID50/ml
CV-A24 (strain Joseph); compound concentration 100 µM
  virus titer, TCID50/ml (Figure 2A): 316.228 TCID50/ml
CV-A24 (strain Joseph); compound concentration 150 µM
  virus titer, TCID50/ml (Figure 2A): 316.228 TCID50/ml
HeLa R19 cells
  cytotoxicity (in words): very minimal cytotoxicity
In vitro [1]; CC50 Hap1 Average
  CC50: 97.8 µM
In vitro [1]; Exp 1 CC50 Hap1
  CC50: 97.5 µM
In vitro [1]; Exp 2 CC50 Hap1
  CC50: 98.1 µM
CV-A24v; Coxsackievirus, HeLa R19, read-out: EC50 Average
  EC50: 18.6 µM
CV-A24v; Coxsackievirus, HeLa R19, read-out: EC50 CV-A24v strain 110386
  EC50: 15.7 ± 1.32 µM
CV-A24v; Coxsackievirus, HeLa R19, read-out: EC50 CV-A24v strain 110389
  EC50: 18.6 ± 0.44 µM
CV-A24v; Coxsackievirus, HeLa R19, read-out: EC50 CV-A24v strain 110390
  EC50: 16.8 ± 0.33 µM
CV-A24v; Coxsackievirus, HeLa R19, read-out: EC50 CV-A24v strain 110392
  EC50: 19.1 ± 0.97 µM
CV-A24v; Coxsackievirus, HeLa R19, read-out: EC50 Exp1
  EC50: 17 µM
CV-A24v; Coxsackievirus, HeLa R19, read-out: EC50 Exp2
  EC50: 14.3 µM
CV-A24v; read-out: EC50 Average
  EC50: 16.8 µM
CV-A24v; read-out: EC50 Exp1
  EC50: 18.1 µM and 17.1 µM and 20 µM
CV-A24v; read-out: EC50 Exp2
  EC50: 19 µM and 16.4 µM and 18.1 µM
In vitro [2]; CC50
  CC50: 92.6 ± 1.51 µM
In vitro [2]; CC50 BGM Average
  CC50: 92.6 µM
In vitro [2]; Exp 1 CC50 BGM
  CC50: 91.1 µM
In vitro [2]; Exp 2 CC50 BGM
  CC50: 94.1 µM
EV-A71
  resistance of reverse-engineered EV-A71 2C M193L (in words): conferred 19d resistance
  resistance of reverse-engineered EV-A71 2C M193L/R151H (in words): further increased the resistance
  resistance of reverse-engineered EV-A71 2C M193L/R151H/T133S (in words): slightly further increased resistance
  resistance of reverse-engineered EV-A71 2C R151H (in words): did not confer resistance
EV-A71; 0.2344 µM
  multicycle replication assay read-out, EV-A71(BrCr): 5.8952 and 4.978 and 5.24
EV-A71; 0.4688 µM
  multicycle replication assay read-out, EV-A71(BrCr): 6.681 and 6.55 and 6.0262
EV-A71; 1.875 µM
  multicycle replication assay read-out, EV-A71(BrCr): 102.314 and 101.266 and 100.218
EV-A71; 3.75 µM
  multicycle replication assay read-out, EV-A71(BrCr): 101.266 and 99.5633 and 96.5502
EV-A71; 7.5 µM
  multicycle replication assay read-out, EV-A71(BrCr): 100.48 and 99.0393 and 95.2402
EV-A71; 15 µM
  multicycle replication assay read-out, EV-A71(BrCr): 94.1921 and 92.2271 and 88.5589
EV-A71; 30 µM
  multicycle replication assay read-out, EV-A71(BrCr): 98.1223 and 94.4541 and 90.524
EV-A71; EVA71, HeLa R19, read-out: EC50 Average
  EC50: 1290 nM
EV-A71; EVA71, HeLa R19, read-out: EC50 EV-A71
  EC50: 270 ± 120 nM
EV-A71; EVA71, HeLa R19, read-out: EC50 EV-A71 strain BrCr
  EC50: 1680 ± 620 nM
EV-A71; EVA71, HeLa R19, read-out: EC50 EV-A71 strain TW/2728/04
  EC50: 2330 ± 1230 nM
EV-A71; EVA71, HeLa R19, read-out: EC50 EV-A71 strain TW/2945/98
  EC50: 2900 ± 1030 nM
EV-A71; EVA71, HeLa R19, read-out: EC50 EV-A71 strain TW/70811/08
  EC50: 754 ± 10 nM
EV-A71; EVA71, HeLa R19, read-out: EC50 EV-A71 strain TW/72232/04
  EC50: 2540 ± 1720 nM
EV-A71; EVA71, HeLa R19, read-out: EC50 EV-A71 strain TW/96016/08
  EC50: 1940 ± 820 nM
PV-1; HeLa R19, read-out: EC50 Exp1
  EC50: 21 µM
PV-1; HeLa R19, read-out: EC50 Exp2
  EC50: 22.1 µM
PV-1; HeLa R19, read-out: EC50 PV-1
  EC50: 21.5 ± 0.54 µM
HRV-B14; compound concentration 0.001 µM
  virus titer, TCID50/ml (Figure 2A): 13548130 TCID50/ml and 11698240 TCID50/ml
HRV-B14; compound concentration 0.01 µM
  virus titer, TCID50/ml (Figure 2A): 16982410 TCID50/ml and 30000000 TCID50/ml and 31612280 TCID50/ml
HRV-B14; compound concentration 0.1 µM
  virus titer, TCID50/ml (Figure 2A): 13548130 TCID50/ml and 11698240 TCID50/ml
HRV-B14; compound concentration 0.3 µM
  virus titer, TCID50/ml (Figure 2A): 13548130 TCID50/ml and 11698240 TCID50/ml
HRV-B14; compound concentration 1 µM
  virus titer, TCID50/ml (Figure 2A): 348134 TCID50/ml and 316228 TCID50/ml and 354813 TCID50/ml
EV-D68 (strain Fermon); compound concentration 0.01 µM
  virus titer, TCID50/ml (Figure 2A): 6000000 TCID50/ml and 4677352 TCID50/ml and 3162278 TCID50/ml
EV-D68 (strain Fermon); compound concentration 0.1 µM
  virus titer, TCID50/ml (Figure 2A): 5888437 TCID50/ml and 6000000 TCID50/ml and 3162278 TCID50/ml
EV-D68 (strain Fermon); compound concentration 0.3 µM
  virus titer, TCID50/ml (Figure 2A): 6000000 TCID50/ml and 3548134 TCID50/ml
EV-D68 (strain Fermon); compound concentration 10 µM
  virus titer, TCID50/ml (Figure 2A): 31622.8 TCID50/ml and 21379.6 TCID50/ml and 35481.3 TCID50/ml
[3]
  inhibition of contemporary/clinical isolates of EV-A71, CV-A24v and EV-D68 (in words): inhibited all clinical isolates of EV-A71, CV-A24v, and EV-D68 tested
  spectrum of antiviral activity (in words): inhibited all representative EVs and RVs
Human SERT; 1µM, Control = 100.00
  SERT, Mean (Figure 8B): 104.62
Human SERT; 1µM, Control = 100%
  SERT, Mean as % (Figure 8B): 105%
Human SERT; 100µM
  SERT, Mean (Figure 8B): 107.21
  SERT, Mean as % (Figure 8B): 107%
Human SERT; HEK293 cells expressing human SERT, 1 and 100 μM
  inhibition of SERT-mediated uptake (in words): neither 12a, 19b, 19d, nor the combined compound 12b inhibited
CV-B3 [4]
  effect of the substitution on antiviral activity against CV-B3 (in words): only marginally affected antiviral activity
CV-B3 [4]; CVB3, HeLa R19, […], read-out: EC50 Exp1
  EC50: 7980 nM
CV-B3 [4]; CVB3, HeLa R19, read-out: CV-B3 EC50 Average
  EC50: 790 nM
CV-B3 [4]; CVB3, HeLa R19, read-out: CV-B3 Exp 1 EC50
  EC50: 730 nM
CV-B3 [4]; CVB3, HeLa R19, read-out: CV-B3 Exp2 EC50
  EC50: 850 nM
CV-B3 [4]; CVB3, HeLa R19, read-out: EC50 Exp1
  EC50: 1040 nM
CV-B3 [4]; CVB3, HeLa R19, read-out: EC50 HelaR19 Average
  EC50: 770 nM
CV-B3 [4]; CVB3, HeLa R19, read-out: Exp 1 EC50 HelaR19
  EC50: 910 nM
CV-B3 [4]; CVB3, HeLa R19, read-out: Exp 2 EC50 HelaR19
  EC50: 630 nM
CV-B3 [4]; CVB3 / genotype 2c, HeLa R19, read-out: EC50 CV-B3 WT
  EC50: 1260 ± 150 nM
Human DAT; 1µM
  DAT, Mean (Figure 8B): 99.9783
  DAT, Mean as % (Figure 8B): 76%
Human DAT; 100µM
  DAT, Mean (Figure 8B): 90.1191
  DAT, Mean as % (Figure 8B): 90%
Human DAT; HEK293 cells expressing human DAT, 1 μM or 100 μM
  inhibition of DAT function (in words): neither 12a, 19b, 19d, nor the combined compound 12b inhibited
CV-B3 [5]; read-out: EC50 BGM Average
  EC50: 380 nM
CV-B3 [5]; read-out: Exp 1 EC50 BGM
  EC50: 440 nM
CV-B3 [5]; read-out: Exp 2 EC50 BGM
  EC50: 320 nM
In vitro [6]; CC50 Average
  CC50: > 30 µM
In vitro [6]; CC50 HelaR19 Average
  CC50: 93.7 µM
In vitro [6]; Exp 1 CC50
  CC50: > 30 µM
In vitro [6]; Exp 1 CC50 HelaR19
  CC50: 92.3 µM
In vitro [6]; Exp2 CC50
  CC50: > 30 µM
In vitro [6]; Exp 2 CC50 HelaR19
  CC50: 95 µM
EV-A71 (strain BrCr); compound concentration 10 µM
  virus titer, TCID50/ml (Figure 2A): 316.228 TCID50/ml
EV-A71 (strain BrCr); compound concentration 30 µM
  virus titer, TCID50/ml (Figure 2A): 316.228 TCID50/ml
EV-A71 (strain BrCr); compound concentration 100 µM
  virus titer, TCID50/ml (Figure 2A): 316.228 TCID50/ml
EV-A71 (strain BrCr); compound concentration 150 µM
  virus titer, TCID50/ml (Figure 2A): 316.228 TCID50/ml
CV-B3 (strain Nancy); compound concentration 10 µM
  virus titer, TCID50/ml (Figure 2A): 2187.76 TCID50/ml and 1625.6 TCID50/ml
CV-B3 (strain Nancy); compound concentration 30 µM
  virus titer, TCID50/ml (Figure 2A): 2187.76 TCID50/ml and 1479.11 TCID50/ml
Human NET; 1µM
  NET, Mean (Figure 8B): 125.873
  NET, Mean as % (Figure 8B): 126%
Human NET; 100µM
  NET, Mean (Figure 8B): 118.011
  NET, Mean as % (Figure 8B): 118%
Human NET; HEK293 cells expressing human NET, 1 μM or 100 μM
  inhibition of NET function (in words): neither 12a, 19b, 19d, nor the combined compound 12b inhibited
HRV-A2 [7]
  EC50: 15.2 ± 1.13 µM
HRV-A2 [8]; compound concentration 0.01 µM
  virus titer, TCID50/ml (Figure 2A): 354813 TCID50/ml
HRV-A2 [8]; compound concentration 1 µM
  virus titer, TCID50/ml (Figure 2A): 169824 TCID50/ml and 188844 TCID50/ml
HRV-A2 [8]; compound concentration 3 µM
  virus titer, TCID50/ml (Figure 2A): 354813 TCID50/ml and 588844 TCID50/ml
HRV-A2 [8]; compound concentration 30 µM
  virus titer, TCID50/ml (Figure 2A): 1316.23 TCID50/ml and 1316 TCID50/ml
